The source of these data is publication PMC10353187, “Discovery of a new potent oxindole multi-kinase inhibitor among a series of designed 3-alkenyl-oxindoles with ancillary carbonic anhydrase inhibitory activity as antiproliferative agents” (BMC Chemistry, 2023).

What all share (test): NCI-60 single-dose antiproliferative assay (SRB)
Holding throughout (type): cell-based

The subject of assay [1] is 786-0. Particulars: Homo sapiens; 10 μM single dose; 786-0, Renal cancer; read-out: Cell Growth inhibition Percent. In outline: (§1)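 A 48 h exposure to 10 µM compound, in triplicate wells, followed 24 h of cell attachment in RPMI 1640 with 5% FBS and 2 mM glutamine. TCA-fixed cells were stained with SRB and read at 515 nm to give percent growth relative to controls.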
Assay [2] relates to MOLT-4. The following applies: Homo sapiens; 10 μM single dose; MOLT-4, Leukemia; read-out: Cell Growth inhibition Percent. Put shortly:
as §1

For assay [3], the system named is MDA-MB-435. Particulars: Homo sapiens; 10 μM single dose; MDA-MB-435, Melanoma; read-out: Cell Growth inhibition Percent. In outline:
as §1

Assay [4] concerns RXF 393. Particulars: Homo sapiens; 10 μM single dose; RXF 393, Renal cancer; read-out: Cell Growth inhibition Percent. In outline: as §1
In assay [5] the test system is DU-145. Particulars: Homo sapiens; 10 μM single dose; DU-145, Prostate cancer; read-out: Cell Growth inhibition Percent. In outline: as §1
The test system of assay [6] is SF-539. The following applies: Homo sapiens; 10 μM single dose; SF-539, CNS cancer; read-out: Cell Growth inhibition Percent. In outline:
as §1

The test system of assay [7] is SK-OV-3. Particulars: Homo sapiens; 10 μM single dose; SK-OV-3, Ovarian Cancer; read-out: Cell Growth inhibition Percent. In outline:
as §1

Assay [8] relates to OVCAR-8. Particulars: Homo sapiens; 10 μM single dose; OVCAR-8, Ovarian Cancer; read-out: Cell Growth inhibition Percent. In outline:
as §1

The test system of assay [9] is NCI-H522. Particulars: Homo sapiens; 10 μM single dose; NCI-H522, Non-small cell lung cancer; read-out: Cell Growth inhibition Percent. In outline:
as §1

Assay [10] concerns TK-10. Particulars: Homo sapiens; 10 μM single dose; TK-10, Renal cancer; read-out: Cell Growth inhibition Percent. Put shortly:
as §1

Assay [11] deals with SW-620. Particulars: Homo sapiens; 10 μM single dose; SW-620, Colon cancer; read-out: Cell Growth inhibition Percent. In outline: as §1
Assay [12] concerns SK-MEL-2. Particulars: Homo sapiens; 10 μM single dose; SK-MEL-2, Melanoma; read-out: Cell Growth inhibition Percent. In outline:
as §1

Assay [13] relates to OVCAR-3. Particulars: Homo sapiens; 10 μM single dose; OVCAR-3, Ovarian Cancer; read-out: Cell Growth inhibition Percent. Put shortly:
as §1

Assay [14] concerns MDA-MB-468. The following applies: Homo sapiens; 10 μM single dose; MDA-MB-468, Breast cancer; read-out: Cell Growth inhibition Percent. Put shortly:
as §1

Assay [15] deals with HCT-15. Particulars: Homo sapiens; 10 μM single dose; HCT-15, Colon cancer; read-out: Cell Growth inhibition Percent. Put shortly:
as §1

Assay [16] deals with HCT-116. Particulars: Homo sapiens; 10 μM single dose; HCT-116, Colon cancer; read-out: Cell Growth inhibition Percent. Put shortly: as §1
The subject of assay [17] is RPMI-8226. The following applies: Homo sapiens; 10 μM single dose; RPMI-8226, Leukemia; read-out: Cell Growth inhibition Percent. Put shortly:
as §1

Assay [18] relates to HT29. The following applies: Homo sapiens, HT-29; 10 μM single dose; HT29, Colon cancer; read-out: Cell Growth inhibition Percent. In outline:
as §1

Regarding `NS(=O)(=O)c1ccc(NCc2ccc(NC=C3C(=O)Nc4ccccc43)cc2)cc1` [Compound 11a, 4-{[4-({[2-Oxoindolin-3-ylidene]methyl}amino)benzyl]amino}benzenesulfonamide], the inhibition at 10 µM stood at 0.56% in assay [1]; 1.28% in [2]; 2.04% in assay [3]; 26.2% in assay [4]; 2.9% in assay [5].

As for `NS(=O)(=O)c1nnc(NC=C2C(=O)Nc3ccccc32)s1` [Compound 4d, 5-{[(2-Oxoindolin-3-ylidene)methyl]amino}-1,3,4-thiadiazole-2-sulfonamide], the inhibition at 10 µM in assay [1] was determined as 1.8%; in assay [6], 3.69%; in assay [7], 0.47%; in [8], 0.12%; in assay [9], 0.13%.

`O=C1Nc2ccccc2C1=CNc1ccc(C(=O)Nc2ccc(S(=O)(=O)Nc3ncccn3)cc2)cc1` [Compound 9b, 4-{[(2-Oxoindolin-3-ylidene)methyl]amino}-N-{4-[N-(pyrimidin-2-yl)sulfamoyl]phenyl}benzamide]: the inhibition at 10 µM in assay [1] amounted to 4.99%; in [6], 5.04%.

In the case of `O=C1Nc2ccccc2C1=CNc1ccc(C(=O)O)cc1` [Compound 4c, 4-{[(2-Oxoindolin-3-ylidene)methyl]amino}benzoic acid], the inhibition at 10 µM was found to be 19.1% in [10]; 4.08% in assay [1]; 2.79% in [6]; 4.95% in assay [11]; 29.6% in assay [4].

Take `NS(=O)(=O)N/C=C1/C(=O)Nc2ccccc21` [Compound 5, 3-(sulfamidmethylene)indoline-2-one]: the inhibition at 10 µM in [7] was 5.43%; in assay [9], 5.36%; in [12], 2.36%.

On to `O=C(Nc1ccc(NC=C2C(=O)Nc3ccccc32)cc1)Nc1nccs1` [Compound 15c, 1-{4-[((2-Oxoindolin-3-ylidene)methyl)amino]phenyl}-3-(thiazol-2-yl)urea], for which the inhibition at 10 µM in [10] was determined as 24.3%; in assay [1], 47.1%; in assay [6], 66.4%; in assay [11], 78.6%; in [13], 84.6%; in assay [7], 45%. In addition, the inhibition at 10 µM in assay [2] came out at 67.8%; in assay [3] it was 153%; in assay [14], 102%; in assay [8], 44.3%; in assay [15] it was 71%; in assay [16], 73%. Further, the inhibition at 10 µM in [4] was determined as 120%; in assay [5], 59.5%; in [17], 16.4%; in assay [12], 37.9%; in assay [18], 82.1%.

With `O=C1Nc2ccccc2C1=CNc1ccc(CNc2ccc(S(=O)(=O)Nc3ncccn3)cc2)cc1` [Compound 11b, 4-{[4-({[2-Oxoindolin-3-ylidene]methyl}amino)benzyl]amino}-N-(pyrimidin-2-yl)benzenesulfonamide], the inhibition at 10 µM was found to be 4.6% in assay [11]; 32% in assay [3]; 7.66% in assay [14]; 1.39% in assay [8]; 9.43% in assay [15]; 13.4% in assay [16]. Besides, the inhibition at 10 µM in assay [9] stood at 6.92%; in assay [17] it was 28.9%.

For `O=C1Nc2ccccc2C1=CNc1ccc(C(=O)C=CNc2nccs2)cc1` [Compound 13c, 3-{[(4-{3-[Thiazol-2-ylamino]acryloyl}phenyl)amino]methylene}indolin-2-one], the inhibition at 10 µM was 1.96% in [6]; 3.91% in assay [13]; 3.75% in assay [7]; 1.15% in assay [3]; 23.5% in assay [14]; 12% in assay [15]. For the same molecule, the inhibition at 10 µM in assay [16] amounted to 21.9%; in [9] it was 2.31%; in assay [17], 35%; in assay [18] it was 8.13%.

The term inhibition denotes the change of the read-out against control, counted positive when it falls.
